Measured values: patent US20110201818A1, “POLO-LIKE KINASE INHIBITORS” (TAKEDA PHARMACEUTICAL COMPANY LIMITED, priority 2007, published 2011)

molecular target: T1, human PLK1 (Homo sapiens, UniProt P53350); test: PLK1 in vitro enzymatic activity assay (phosphorylation of alpha casein by recombinant PLK1); format: biochemical; settings: recombinant FLAG-tagged PLK1, alpha casein substrate, 500 nmol/L ATP, 40 min at room temperature; read-out: pIC50 (PLK1) (converted)
T1 construct: FLAG (DYKDDDDK) (N); made in house; host or cells: Sf21 insect cells, recombinant baculovirus (pFASTBAC1, Bac-to-Bac)
Method in brief: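 Recombinant PLK1 from baculovirus-infected Sf21 cells (50 ng) phosphorylated 3 μg alpha casein for 40 min at room temperature in HEPES pH 7.5, Mg acetate, DTT buffer with 500 nmol/L ATP plus [γ-32P]ATP. TCA-precipitated phosphoprotein was filter-captured, washed, and counted by scintillation.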

T1 sequence (P53350 with tags, fused parts or gaps): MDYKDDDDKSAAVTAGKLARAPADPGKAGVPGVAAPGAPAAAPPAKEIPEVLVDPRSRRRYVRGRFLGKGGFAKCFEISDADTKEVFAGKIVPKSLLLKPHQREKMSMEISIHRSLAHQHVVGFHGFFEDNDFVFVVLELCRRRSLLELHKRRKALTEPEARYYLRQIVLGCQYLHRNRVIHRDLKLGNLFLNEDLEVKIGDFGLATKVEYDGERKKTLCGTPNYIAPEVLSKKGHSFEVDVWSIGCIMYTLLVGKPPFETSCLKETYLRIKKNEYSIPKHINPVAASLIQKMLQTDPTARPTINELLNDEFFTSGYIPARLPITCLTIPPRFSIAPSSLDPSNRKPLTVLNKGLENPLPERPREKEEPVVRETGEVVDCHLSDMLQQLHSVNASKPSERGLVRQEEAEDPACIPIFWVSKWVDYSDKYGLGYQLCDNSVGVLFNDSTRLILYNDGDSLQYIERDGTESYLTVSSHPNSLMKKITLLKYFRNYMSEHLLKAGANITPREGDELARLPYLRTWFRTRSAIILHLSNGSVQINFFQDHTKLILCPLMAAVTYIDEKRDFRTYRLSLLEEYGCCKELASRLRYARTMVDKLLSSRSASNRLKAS

`CN1C(=O)C(F)(F)CN(C2CCCC2)c2nc(Nc3cccc4c3OC(F)(F)O4)ncc21` [Compound 136, 9-cyclopentyl-2-(2,2-difluorobenzo[d][1,3]dioxol-4-ylamino)-7,7-difluoro-5-methyl-8,9-dihydro-5H-pyrimido[4,5-b][1,4]diazepin-6(7H)-one] and `COc1c(Nc2ncc3c(n2)N(C2CCCC2)CC(F)(F)C(=O)N3C)ccc(C(=O)O)c1F` [Compound 123, 4-(9-Cyclopentyl-7,7-difluoro-5-methyl-6-oxo-6,7,8,9-tetrahydro-5H-pyrimido[4,5-b][1,4]diazepin-2-ylamino)-2-fluoro-3-methoxybenzoic acid] cannot be ordered by IC50: over 2 nM for the first, over 2 nM for the second.

`Cc1cc(C(=O)NC2CCN(C)CC2)ccc1Nc1ncc2c(n1)N(C1CCCC1)CC(F)(F)C(=O)N2C` [Compound 26, 4-(9-Cyclopentyl-7,7-difluoro-5-methyl-6-oxo-6,7,8,9-tetrahydro-5H-pyrimido[4,5-b][1,4]diazepin-2-ylamino)-3-methyl-N-(1-methylpiperidin-4-yl)benzamide] and `CN1CCC(NC(=O)c2ccc(Nc3ncc4c(n3)N(C3CCCC3)CC(F)(F)C(=O)N4C)c(Cl)c2)CC1` [Compound 24, 3-Chloro-4-(9-cyclopentyl-7,7-difluoro-5-methyl-6-oxo-6,7,8,9-tetrahydro-5H-pyrimido[4,5-b][1,4]diazepin-2-ylamino)-N-(1-methylpiperidin-4-yl)benzamide] cannot be ordered by IC50: over 2 nM for the first, over 2 nM for the second.

`COc1cc(C(=O)NC2CCN(C)CC2)ccc1Nc1ncc2c(n1)N(C1CCCC1)CC(F)C(=O)N2C` (centres unmarked) [Compound 84, 4-(9-cyclopentyl-7-fluoro-5-methyl-6-oxo-6,7,8,9-tetrahydro-5H-pyrimido[4,5-b][1,4]diazepin-2-ylamino)-3-methoxy-N-(1-methylpiperidin-4-yl)benzamide] and `COc1cc(C(=O)NC2CCN(C)CC2)ccc1Nc1ncc2c(n1)N(C1CCCCC1)CC(C)(F)C(=O)N2C` (centres unmarked) [Compound 89, 4-(9-Cyclohexyl-7-fluoro-5,7-dimethyl-6-oxo-6,7,8,9-tetrahydro-5H-pyrimido[4,5-b][1,4]diazepin-2-ylamino)-3-methoxy-N-(1-methylpiperidin-4-yl)benzamide] cannot be ordered by IC50: at most 2 nM for the first, at most 2 nM for the second.

`COc1cc(C(=O)NC2CN(C)C2)ccc1Nc1ncc2c(n1)N(C1CCCC1)CC(C)(F)C(=O)N2C` (centres unmarked) [Compound 88, 4-(9-Cyclopentyl-7-fluoro-5,7-dimethyl-6-oxo-6,7,8,9-tetrahydro-5H-pyrimido[4,5-b][1,4]diazepin-2-ylamino)-3-methoxy-N-(1-methylazetidin-3-yl)benzamide] and `CCN1CC(NC(=O)c2ccc(Nc3ncc4c(n3)N(C3CCCC3)CC(F)(F)C(=O)N4C)c(OC)c2)C1` [Compound 128, 4-(9-cyclopentyl-7,7-difluoro-5-methyl-6-oxo-6,7,8,9-tetrahydro-5H-pyrimido[4,5-b][1,4]diazepin-2-ylamino)-N-(1-ethylazetidin-3-yl)-3-methoxybenzamide] cannot be ordered by IC50: at most 2 nM for the first, at most 2 nM for the second.

`COc1cc(C(=O)NC2CNC2)ccc1Nc1ncc2c(n1)N(C1CCCCC1)CC(F)(F)C(=O)N2C` [Compound 43, N-(azetidin-3-yl)-4-(9-cyclohexyl-7,7-difluoro-5-methyl-6-oxo-6,7,8,9-tetrahydro-5H-pyrimido[4,5-b][1,4]diazepin-2-ylamino)-3-methoxybenzamide] and `COc1cc(C(=O)N[C@H]2CCCNC2)ccc1Nc1ncc2c(n1)N(C1CCCC1)CC(F)(F)C(=O)N2C` [Compound 9, (S)-4-(9-cyclopentyl-7,7-difluoro-5-methyl-6-oxo-6,7,8,9-tetrahydro-5H-pyrimido[4,5-b][1,4]diazepin-2-ylamino)-3-methoxy-N-(piperidin-3-yl)benzamide] cannot be ordered by IC50: at most 2 nM for the first, at most 2 nM for the second.

`COc1cc(C(=O)NN2CCOCC2)ccc1Nc1ncc2c(n1)N(C1CCCCC1)CC(F)(F)C(=O)N2C` [Compound 65, 4-(9-cyclohexyl-7,7-difluoro-5-methyl-6-oxo-6,7,8,9-tetrahydro-5H-pyrimido[4,5-b][1,4]diazepin-2-ylamino)-3-methoxy-N-morpholinobenzamide] and `COc1cc(C(=O)NN2CCN(C)CC2)ccc1Nc1ncc2c(n1)N(C1CCCCC1)CC(F)(F)C(=O)N2C` [Compound 34, 4-(9-cyclohexyl-7,7-difluoro-5-methyl-6-oxo-6,7,8,9-tetrahydro-5H-pyrimido[4,5-b][1,4]diazepin-2-ylamino)-3-methoxy-N-(4-methylpiperazin-1-yl)benzamide] cannot be ordered by IC50: at most 2 nM for the first, at most 2 nM for the second.

`COc1cc(C(=O)N[C@@H]2CCCC[C@@H]2O)ccc1Nc1ncc2c(n1)N(C1CCCCC1)CC(F)(F)C(=O)N2C` (racemic) [Compound 47, 4-(9-cyclohexyl-7,7-difluoro-5-methyl-6-oxo-6,7,8,9-tetrahydro-5H-pyrimido[4,5-b][1,4]diazepin-2-ylamino)-N-((cis)-2-hydroxycyclohexyl)-3-methoxybenzamide] and `COc1cc(C(=O)NC2CC2)ccc1Nc1ncc2c(n1)N(C1CCCC1)CC(F)(F)C(=O)N2C` [Compound 2, 4-(9-cyclopentyl-7,7-difluoro-5-methyl-6-oxo-6,7,8,9-tetrahydro-5H-pyrimido[4,5-b][1,4]diazepin-2-ylamino)-N-cyclopropyl-3-methoxybenzamide] cannot be ordered by IC50: at most 2 nM for the first, over 2 nM for the second.

`C=C[C@@]1(F)CN(C2CCCC2)c2nc(Nc3ccc(C(=O)NC4CCN(CCOP(=O)(O)O)CC4)cc3OC)ncc2N(C)C1=O` [Compound 111, (R)-2-(4-(4-(9-cyclopentyl-7-fluoro-5-methyl-6-oxo-7-vinyl-6,7,8,9-tetrahydro-5H-pyrimido[4,5-b][1,4]diazepin-2-ylamino)-3-methoxybenzamido)piperidin-1-yl)ethyl dihydrogen phosphate] and `COc1cc(C(=O)NC2CCN(CC(N)=O)CC2)ccc1Nc1ncc2c(n1)N(C1CCCC1)CC(F)(F)C(=O)N2C` [Compound 114] cannot be ordered by IC50: at most 2 nM for the first, over 2 nM for the second.

`COc1cc(C(=O)NN(C)C)ccc1Nc1ncc2c(n1)N(C1CCCCC1)CC(F)(F)C(=O)N2C` [Compound 61, 4-(9-cyclohexyl-7,7-difluoro-5-methyl-6-oxo-6,7,8,9-tetrahydro-5H-pyrimido[4,5-b][1,4]diazepin-2-ylamino)-3-methoxy-N′,N′-dimethylbenzohydrazide] and `COc1cc(C(N)=O)ccc1Nc1ncc2c(n1)N(C1CCCCC1)CC(F)(F)C(=O)N2C` [Compound 58, 4-(9-cyclohexyl-7,7-difluoro-5-methyl-6-oxo-6,7,8,9-tetrahydro-5H-pyrimido[4,5-b][1,4]diazepin-2-ylamino)-3-methoxybenzamide] cannot be ordered by IC50: at most 2 nM for the first, at most 2 nM for the second.

`CN1C(=O)C(F)(F)CN(C2CCCC2)c2nc(Nc3ccc4[nH]cc(C5=CCNCC5)c4c3)ncc21` [Compound 21, 9-Cyclopentyl-7,7-difluoro-5-methyl-2-(3-(1,2,3,6-tetrahydropyridin-4-yl)-1H-indol-5-ylamino)-8,9-dihydro-5H-pyrimido[4,5-b][1,4]diazepin-6(7H)-one] and `COc1cc(C(=O)NC2CCNCC2)ccc1Nc1ncc2c(n1)N(C1CCCC1)CC(F)(F)C(=O)N2C` [Compound 10, 4-(9-cyclopentyl-7,7-difluoro-5-methyl-6-oxo-6,7,8,9-tetrahydro-5H-pyrimido[4,5-b][1,4]diazepin-2-ylamino)-3-methoxy-N-(piperidin-4-yl)benzamide] cannot be ordered by IC50: over 2 nM for the first, at most 2 nM for the second.

`COc1cc(C(=O)NC2CCN(C)CC2)ccc1Nc1ncc2c(n1)N(C1CCCC1)CC(F)(F)CN2C` [Compound 138, 4-(9-cyclopentyl-7,7-difluoro-5-methyl-6,7,8,9-tetrahydro-5H-pyrimido[4,5-b][1,4]diazepin-2-ylamino)-3-methoxy-N-(1-methylpiperidin-4-yl)benzamide] and `CCN1CCC(NC(=O)c2ccc(Nc3ncc4c(n3)N(C3CCCCC3)CC(F)(F)C(=O)N4C)c(OC)c2)CC1` [Compound 36, 4-(9-cyclohexyl-7,7-difluoro-5-methyl-6-oxo-6,7,8,9-tetrahydro-5H-pyrimido[4,5-b][1,4]diazepin-2-ylamino)-N-(1-ethylpiperidin-4-yl)-3-methoxybenzamide] cannot be ordered by IC50: over 2 nM for the first, at most 2 nM for the second.

`COc1cc(C(=O)N[C@H]2CC[C@H](OP(=O)(O)O)CC2)ccc1Nc1ncc2c(n1)N(C1CCCCC1)CC(F)(F)C(=O)N2C` [Compound 41, (1R,4R)-4-(4-(9-cyclohexyl-7,7-difluoro-5-methyl-6-oxo-6,7,8,9-tetrahydro-5H-pyrimido[4,5-b][1,4]diazepin-2-ylamino)-3-methoxybenzamido)cyclohexyl dihydrogen phosphate] and `COc1cc(C(=O)NC2CCNCC2)ccc1Nc1ncc2c(n1)N(C1CCCCC1)CC(F)(F)C(=O)N2C` [Compound 70, 4-(9-cyclohexyl-7,7-difluoro-5-methyl-6-oxo-6,7,8,9-tetrahydro-5H-pyrimido[4,5-b][1,4]diazepin-2-ylamino)-3-methoxy-N-(piperidin-4-yl)benzamide] cannot be ordered by IC50: at most 2 nM for the first, at most 2 nM for the second.

`COc1cc(C(=O)NC2CCN(C(=O)CN(C)C)CC2)ccc1Nc1ncc2c(n1)N(C1CCCC1)CC(F)(F)C(=O)N2C` [Compound 11, 4-(9-cyclopentyl-7,7-difluoro-5-methyl-6-oxo-6,7,8,9-tetrahydro-5H-pyrimido[4,5-b][1,4]diazepin-2-ylamino)-N-(1-(2-(dimethylamino)acetyl)piperidin-4-yl)-3-methoxybenzamide] and `COc1cc(C(=O)NC[C@@H](C)O)ccc1Nc1ncc2c(n1)N(C1CCCCC1)CC(F)(F)C(=O)N2C` [Compound 62, (R)-4-(9-cyclohexyl-7,7-difluoro-5-methyl-6-oxo-6,7,8,9-tetrahydro-5H-pyrimido[4,5-b][1,4]diazepin-2-ylamino)-N-(2-hydroxypropyl)-3-methoxybenzamide] cannot be ordered by IC50: at most 2 nM for the first, at most 2 nM for the second.
